The NIST ThermoML archive (doi:10.1021/je400395u)

Assay: mn = molality of the nth substance listed, in mol/kg
Conditions: 100 kPa, Liquid; for viscosity: Capillary tube (Ostwald / Ubbelohde) method; for mass density: Vibrating tube method

OC[C@@H](O)[C@@H](O)CO [meso-1,2,3,4-butanetetrol] + O
Conditions | mass density, m1 = 0.2002 [kg/m3] | mass density, m1 = 0.4001 [kg/m3] | mass density, m1 = 0.6001 [kg/m3] | mass density, m1 = 0.7984 [kg/m3] | mass density, m1 = 0.9998 [kg/m3] | viscosity, m1 = 0.2002 [mPa·s] | viscosity, m1 = 0.4001 [mPa·s] | viscosity, m1 = 0.6001 [mPa·s] | viscosity, m1 = 0.7984 [mPa·s] | viscosity, m1 = 0.9998 [mPa·s]
293.15 K | 1005.26 | 1012.03 | 1018.54 | 1024.74 | 1030.79 | 1.069 | 1.134 | 1.204 | 1.278 | 1.358
303.15 K | 1002.58 | 1009.24 | 1015.65 | 1021.76 | 1027.73 | 0.849 | 0.895 | 0.947 | 1.001 | 1.058
313.15 K | 999.05 | 1005.61 | 1011.9 | 1017.92 | 1023.81 | 0.69 | 0.727 | 0.766 | 0.806 | 0.849
323.15 K | 994.8 | 1001.29 | 1007.55 | 1013.53 | 1019.39 | 0.576 | 0.604 | 0.634 | 0.665 | 0.698

OC[C@@H](O)[C@H](O)[C@@H](O)CO [xylitol] + O
Conditions | mass density, m1 = 0.2002 [kg/m3] | mass density, m1 = 0.4 [kg/m3] | mass density, m1 = 0.5996 [kg/m3] | mass density, m1 = 0.7997 [kg/m3] | mass density, m1 = 1 [kg/m3] | viscosity, m1 = 0.2002 [mPa·s] | viscosity, m1 = 0.4 [mPa·s] | viscosity, m1 = 0.5996 [mPa·s] | viscosity, m1 = 0.7997 [mPa·s] | viscosity, m1 = 1 [mPa·s]
293.15 K | 1008.14 | 1017.61 | 1026.67 | 1035.36 | 1043.71 | 1.081 | 1.168 | 1.249 | 1.343 | 1.449
303.15 K | 1005.4 | 1014.72 | 1023.62 | 1032.15 | 1040.36 | 0.858 | 0.917 | 0.981 | 1.056 | 1.125
313.15 K | 1001.83 | 1010.99 | 1019.76 | 1028.15 | 1036.24 | 0.699 | 0.743 | 0.792 | 0.845 | 0.901
323.15 K | 997.51 | 1006.53 | 1015.16 | 1023.43 | 1031.37 | 0.582 | 0.617 | 0.655 | 0.695 | 0.739
